Numbers after ± are expanded uncertainties.
Key:
[1] = molar heat capacity at constant pressure; xn = mol fraction of the nth substance listed; conditions: 101 kPa, Liquid, Large sample (1 g) DSC
[2] = molar heat capacity at constant pressure; conditions: 101.33 kPa, Liquid, Large sample (1 g) DSC

CC(O)COC(C)COC(C)CO (stereo unspecified) [2-[2-(2-hydroxypropoxy)propoxy]-1-propanol] + O
molar heat capacity at constant pressure ([1]; 303.15 K, x1 = 0.2): 158.9 ± 3.9 J/K/mol
molar heat capacity at constant pressure ([1]; 303.15 K, x1 = 0.4): 234.7 ± 5.7 J/K/mol
molar heat capacity at constant pressure ([1]; 303.15 K, x1 = 0.5): 271.9 ± 6.7 J/K/mol
molar heat capacity at constant pressure ([1]; 303.15 K, x1 = 0.6): 309 ± 7.6 J/K/mol
molar heat capacity at constant pressure ([1]; 303.15 K, x1 = 0.8): 381.4 ± 9.3 J/K/mol
molar heat capacity at constant pressure ([1]; 308.15 K, x1 = 0.2): 160.5 ± 3.9 J/K/mol
molar heat capacity at constant pressure ([1]; 308.15 K, x1 = 0.4): 237.2 ± 5.8 J/K/mol
molar heat capacity at constant pressure ([1]; 308.15 K, x1 = 0.5): 275.1 ± 6.7 J/K/mol
molar heat capacity at constant pressure ([1]; 308.15 K, x1 = 0.6): 312.1 ± 7.6 J/K/mol
molar heat capacity at constant pressure ([1]; 308.15 K, x1 = 0.8): 385.8 ± 9.5 J/K/mol
molar heat capacity at constant pressure ([1]; 313.15 K, x1 = 0.2): 162.2 ± 4 J/K/mol
molar heat capacity at constant pressure ([1]; 313.15 K, x1 = 0.4): 240 ± 5.9 J/K/mol
molar heat capacity at constant pressure ([1]; 313.15 K, x1 = 0.5): 278.1 ± 6.8 J/K/mol
molar heat capacity at constant pressure ([1]; 313.15 K, x1 = 0.6): 315.6 ± 7.7 J/K/mol
molar heat capacity at constant pressure ([1]; 313.15 K, x1 = 0.8): 389.6 ± 9.5 J/K/mol
molar heat capacity at constant pressure ([1]; 318.15 K, x1 = 0.2): 163.4 ± 4 J/K/mol
molar heat capacity at constant pressure ([1]; 318.15 K, x1 = 0.4): 241.6 ± 5.9 J/K/mol
molar heat capacity at constant pressure ([1]; 318.15 K, x1 = 0.5): 280.9 ± 6.9 J/K/mol
molar heat capacity at constant pressure ([1]; 318.15 K, x1 = 0.6): 317.9 ± 7.8 J/K/mol
molar heat capacity at constant pressure ([1]; 318.15 K, x1 = 0.8): 392.4 ± 9.6 J/K/mol
molar heat capacity at constant pressure ([1]; 323.15 K, x1 = 0.2): 164.9 ± 4 J/K/mol
molar heat capacity at constant pressure ([1]; 323.15 K, x1 = 0.4): 244.5 ± 6 J/K/mol
molar heat capacity at constant pressure ([1]; 323.15 K, x1 = 0.5): 283.2 ± 6.9 J/K/mol
molar heat capacity at constant pressure ([1]; 323.15 K, x1 = 0.6): 321.6 ± 7.9 J/K/mol
molar heat capacity at constant pressure ([1]; 323.15 K, x1 = 0.8): 396.3 ± 9.7 J/K/mol
molar heat capacity at constant pressure ([1]; 328.15 K, x1 = 0.2): 166.2 ± 4.1 J/K/mol
molar heat capacity at constant pressure ([1]; 328.15 K, x1 = 0.4): 246.6 ± 6 J/K/mol
molar heat capacity at constant pressure ([1]; 328.15 K, x1 = 0.5): 286.1 ± 7 J/K/mol
molar heat capacity at constant pressure ([1]; 328.15 K, x1 = 0.6): 324.7 ± 8 J/K/mol
molar heat capacity at constant pressure ([1]; 328.15 K, x1 = 0.8): 400.5 ± 9.8 J/K/mol
molar heat capacity at constant pressure ([1]; 333.15 K, x1 = 0.2): 167.8 ± 4.1 J/K/mol
molar heat capacity at constant pressure ([1]; 333.15 K, x1 = 0.4): 249.9 ± 6.1 J/K/mol
molar heat capacity at constant pressure ([1]; 333.15 K, x1 = 0.5): 289.3 ± 7.1 J/K/mol
molar heat capacity at constant pressure ([1]; 333.15 K, x1 = 0.6): 328.3 ± 8 J/K/mol
molar heat capacity at constant pressure ([1]; 333.15 K, x1 = 0.8): 404.1 ± 9.9 J/K/mol
molar heat capacity at constant pressure ([1]; 338.15 K, x1 = 0.2): 169.1 ± 4.1 J/K/mol
molar heat capacity at constant pressure ([1]; 338.15 K, x1 = 0.4): 252.2 ± 6.2 J/K/mol
molar heat capacity at constant pressure ([1]; 338.15 K, x1 = 0.5): 292.5 ± 7.2 J/K/mol
molar heat capacity at constant pressure ([1]; 338.15 K, x1 = 0.6): 331.3 ± 8.1 J/K/mol
molar heat capacity at constant pressure ([1]; 338.15 K, x1 = 0.8): 407.6 ± 10 J/K/mol
molar heat capacity at constant pressure ([1]; 343.15 K, x1 = 0.2): 170.7 ± 4.2 J/K/mol
molar heat capacity at constant pressure ([1]; 343.15 K, x1 = 0.4): 254.8 ± 6.2 J/K/mol
molar heat capacity at constant pressure ([1]; 343.15 K, x1 = 0.5): 295.5 ± 7.2 J/K/mol
molar heat capacity at constant pressure ([1]; 343.15 K, x1 = 0.6): 334.9 ± 8.2 J/K/mol
molar heat capacity at constant pressure ([1]; 343.15 K, x1 = 0.8): 411.8 ± 10 J/K/mol
molar heat capacity at constant pressure ([1]; 348.15 K, x1 = 0.2): 172.2 ± 4.2 J/K/mol
molar heat capacity at constant pressure ([1]; 348.15 K, x1 = 0.4): 257.4 ± 6.3 J/K/mol
molar heat capacity at constant pressure ([1]; 348.15 K, x1 = 0.5): 298.5 ± 7.3 J/K/mol
molar heat capacity at constant pressure ([1]; 348.15 K, x1 = 0.6): 338.2 ± 8.3 J/K/mol
molar heat capacity at constant pressure ([1]; 348.15 K, x1 = 0.8): 416 ± 10 J/K/mol
molar heat capacity at constant pressure ([1]; 353.15 K, x1 = 0.2): 173.9 ± 4.3 J/K/mol
molar heat capacity at constant pressure ([1]; 353.15 K, x1 = 0.4): 260.2 ± 6.4 J/K/mol
molar heat capacity at constant pressure ([1]; 353.15 K, x1 = 0.5): 302.1 ± 7.4 J/K/mol
molar heat capacity at constant pressure ([1]; 353.15 K, x1 = 0.6): 342.1 ± 8.4 J/K/mol
molar heat capacity at constant pressure ([1]; 353.15 K, x1 = 0.8): 420.3 ± 10 J/K/mol

OCCCOCCCO [4-oxa-1,7-heptanediol]
molar heat capacity at constant pressure ([2]; 303.15 K): 329 ± 6 J/K/mol
molar heat capacity at constant pressure ([2]; 313.15 K): 335.9 ± 5.6 J/K/mol
molar heat capacity at constant pressure ([2]; 323.15 K): 342 ± 5.5 J/K/mol
molar heat capacity at constant pressure ([2]; 333.15 K): 348.5 ± 5.4 J/K/mol
molar heat capacity at constant pressure ([2]; 343.15 K): 355.1 ± 5.5 J/K/mol
molar heat capacity at constant pressure ([2]; 353.15 K): 362.6 ± 5.6 J/K/mol

Source: the NIST ThermoML archive (doi:10.1016/j.tca.2012.02.017)
